Assay results from PubChem BioAssay (NCI).
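Five compound concentrations were applied to cells in 96-well plates for 48 hours; endpoints were derived by simple linear interpolation of the resulting dose-response curve. At the GI50, growth is halved. TGI: total growth inhibition.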

Experiments:
Experiment in all cases: NCI anticancer screen, dose series, 48 h
SK-MEL-5 melanoma = system: SK-MEL-5 melanoma
CAKI-1 renal = system: CAKI-1 renal
SNB-19 CNS = system: SNB-19 CNS
SN12C renal = system: SN12C renal
PC-3 prostate = system: PC-3 prostate
SF-539 CNS = system: SF-539 CNS
K-562 leukemia = system: K-562 leukemia
SNB-75 CNS = system: SNB-75 CNS
BT-549 breast = system: BT-549 breast
NCI-H460 lung = system: NCI-H460 lung
UACC-257 melanoma = system: UACC-257 melanoma
HOP-62 NSCLC = system: HOP-62 NSCLC
UO-31 renal = system: UO-31 renal
SK-MEL-28 melanoma = system: SK-MEL-28 melanoma
SR leukemia = system: SR leukemia
IGROV1 ovarian = system: IGROV1 ovarian
HL-60(TB) leukemia = system: HL-60(TB) leukemia
T-47D breast = system: T-47D breast
HCC-2998 colon = system: HCC-2998 colon
ACHN renal = system: ACHN renal
U251 CNS = system: U251 CNS
NCI/ADR-RES ovarian = system: NCI/ADR-RES ovarian
MCF7 breast = system: MCF7 breast
RXF 393 renal = system: RXF 393 renal
M14 melanoma = system: M14 melanoma
NCI-H522 lung = system: NCI-H522 lung
TK-10 renal = system: TK-10 renal
HCT-15 colon = system: HCT-15 colon
UACC-62 melanoma = system: UACC-62 melanoma
OVCAR-3 ovarian = system: OVCAR-3 ovarian
SF-268 CNS = system: SF-268 CNS
DU-145 prostate = system: DU-145 prostate
OVCAR-8 ovarian = system: OVCAR-8 ovarian
CCRF-CEM leukemia = system: CCRF-CEM leukemia
HCT-116 colon = system: HCT-116 colon
SF-295 CNS = system: SF-295 CNS
KM12 colon = system: KM12 colon
SK-OV-3 ovarian = system: SK-OV-3 ovarian
COLO 205 colon = system: COLO 205 colon
MDA-MB-468 breast = system: MDA-MB-468 breast
A498 renal = system: A498 renal
HOP-92 NSCLC = system: HOP-92 NSCLC
EKVX NSCLC = system: EKVX NSCLC
MDA-MB-231 breast = system: MDA-MB-231 breast
MALME-3M melanoma = system: MALME-3M melanoma
LOX IMVI melanoma = system: LOX IMVI melanoma
OVCAR-4 ovarian = system: OVCAR-4 ovarian
MOLT-4 leukemia = system: MOLT-4 leukemia
SK-MEL-2 melanoma = system: SK-MEL-2 melanoma
SW-620 colon = system: SW-620 colon
MDA-MB-435 = system: MDA-MB-435
A549 NSCLC = system: A549 NSCLC
NCI-H23 lung = system: NCI-H23 lung
786-0 renal = system: 786-0 renal
HS 578T breast = system: HS 578T breast
NCI-H226 lung = system: NCI-H226 lung
OVCAR-5 ovarian = system: OVCAR-5 ovarian
HT29 colon = system: HT29 colon

COc1ccc(/C=C/C(=O)c2ccc(S(=O)(=O)NCCNc3nc(Nc4ccc(F)cc4)nc(N(C)C)n3)cc2)cc1
GI50 (SK-MEL-5 melanoma): 3.5 µM | TGI (SK-MEL-5 melanoma): 13.2 µM | GI50 (CAKI-1 renal): 3.34 µM | TGI (CAKI-1 renal): > 100 µM | GI50 (SNB-19 CNS): 5.58 µM | TGI (SNB-19 CNS): 45.5 µM | GI50 (SN12C renal): 3.6 µM | TGI (SN12C renal): 13.3 µM | GI50 (PC-3 prostate): 3.5 µM | TGI (PC-3 prostate): > 100 µM | GI50 (SF-539 CNS): 10.3 µM | TGI (SF-539 CNS): 23 µM | GI50 (K-562 leukemia): 3.99 µM | TGI (K-562 leukemia): > 100 µM | GI50 (SNB-75 CNS): 3.57 µM | TGI (SNB-75 CNS): > 100 µM | GI50 (BT-549 breast): 13.2 µM | TGI (BT-549 breast): 27.4 µM | GI50 (NCI-H460 lung): 4.11 µM | TGI (NCI-H460 lung): 21.6 µM | GI50 (UACC-257 melanoma): 13.3 µM | TGI (UACC-257 melanoma): 38.4 µM | GI50 (HOP-62 NSCLC): 17.1 µM | TGI (HOP-62 NSCLC): > 100 µM | GI50 (UO-31 renal): 3.78 µM | TGI (UO-31 renal): 99.4 µM | GI50 (SK-MEL-28 melanoma): 5.23 µM | TGI (SK-MEL-28 melanoma): 19 µM | GI50 (SR leukemia): 2.97 µM | TGI (SR leukemia): 13.2 µM | GI50 (IGROV1 ovarian): 10.8 µM | TGI (IGROV1 ovarian): 45.6 µM | GI50 (HL-60(TB) leukemia): 3.6 µM | TGI (HL-60(TB) leukemia): 31.5 µM | GI50 (T-47D breast): 3.78 µM | TGI (T-47D breast): 89.8 µM | GI50 (HCC-2998 colon): 5.47 µM | TGI (HCC-2998 colon): 18 µM | GI50 (ACHN renal): 3.4 µM | TGI (ACHN renal): > 100 µM | GI50 (U251 CNS): 6.7 µM | TGI (U251 CNS): 21.5 µM | GI50 (NCI/ADR-RES ovarian): 5.66 µM | TGI (NCI/ADR-RES ovarian): 35.5 µM | GI50 (MCF7 breast): 1.93 µM | TGI (MCF7 breast): 5.85 µM | GI50 (RXF 393 renal): 2.59 µM | TGI (RXF 393 renal): 12.3 µM | GI50 (M14 melanoma): 4.27 µM | TGI (M14 melanoma): 19.2 µM | GI50 (NCI-H522 lung): 2.55 µM | TGI (NCI-H522 lung): 12.5 µM | GI50 (TK-10 renal): 8.09 µM | TGI (TK-10 renal): > 100 µM | GI50 (HCT-15 colon): 2.71 µM | TGI (HCT-15 colon): 7.07 µM | GI50 (UACC-62 melanoma): 4.79 µM | TGI (UACC-62 melanoma): 19.3 µM | GI50 (OVCAR-3 ovarian): 5.01 µM | TGI (OVCAR-3 ovarian): 19.9 µM | GI50 (SF-268 CNS): 4.43 µM | TGI (SF-268 CNS): 55.8 µM | GI50 (DU-145 prostate): 7.54 µM | TGI (DU-145 prostate): > 100 µM | GI50 (OVCAR-8 ovarian): 9.51 µM | TGI (OVCAR-8 ovarian): > 100 µM | GI50 (CCRF-CEM leukemia): 4.09 µM | TGI (CCRF-CEM leukemia): > 100 µM | GI50 (HCT-116 colon): 1.86 µM | TGI (HCT-116 colon): 3.62 µM | GI50 (SF-295 CNS): 5.05 µM | TGI (SF-295 CNS): 18.7 µM | GI50 (KM12 colon): 4.01 µM | TGI (KM12 colon): 16.7 µM | GI50 (SK-OV-3 ovarian): 13.9 µM | TGI (SK-OV-3 ovarian): 76.3 µM | GI50 (COLO 205 colon): 3.46 µM | TGI (COLO 205 colon): 14.3 µM | GI50 (MDA-MB-468 breast): 2.57 µM | TGI (MDA-MB-468 breast): 10.3 µM | GI50 (A498 renal): 10 µM | TGI (A498 renal): 29.7 µM | GI50 (HOP-92 NSCLC): 3.25 µM | TGI (HOP-92 NSCLC): 31 µM | GI50 (EKVX NSCLC): 4.12 µM | TGI (EKVX NSCLC): 22.3 µM | GI50 (MDA-MB-231 breast): 2.73 µM | TGI (MDA-MB-231 breast): 10.5 µM | GI50 (MALME-3M melanoma): 10.6 µM | TGI (MALME-3M melanoma): 43.9 µM | GI50 (LOX IMVI melanoma): 3.23 µM | TGI (LOX IMVI melanoma): 11.5 µM | GI50 (OVCAR-4 ovarian): 4.12 µM | TGI (OVCAR-4 ovarian): > 100 µM | GI50 (MOLT-4 leukemia): 3.12 µM | TGI (MOLT-4 leukemia): 13.2 µM | GI50 (SK-MEL-2 melanoma): 8.1 µM | TGI (SK-MEL-2 melanoma): 22.3 µM | GI50 (SW-620 colon): 5.42 µM | TGI (SW-620 colon): 19.7 µM | GI50 (MDA-MB-435): 5.47 µM | TGI (MDA-MB-435): 23.4 µM | GI50 (A549 NSCLC): 6.54 µM | TGI (A549 NSCLC): > 100 µM | GI50 (NCI-H23 lung): 10.4 µM | TGI (NCI-H23 lung): 50.5 µM | GI50 (786-0 renal): 6.33 µM | TGI (786-0 renal): > 100 µM | GI50 (HS 578T breast): 4.68 µM | TGI (HS 578T breast): 44.8 µM | GI50 (NCI-H226 lung): 3.8 µM | TGI (NCI-H226 lung): 20.4 µM | GI50 (OVCAR-5 ovarian): 8.44 µM | TGI (OVCAR-5 ovarian): 45.9 µM | GI50 (HT29 colon): 1.83 µM | TGI (HT29 colon): 3.73 µM
